Experimental data from US11202761B2, “Formulations for oral delivery of adsorbents in the gut” (Da Volterra, priority 2010, dated 2021).
Like-named read-outs stand apart in the source and are kept apart here.

Legend:
[1] = Kinetics of ciprofloxacin adsorption by activated charcoal measured by microbiological assay; conditions: ciprofloxacin 50 μg/ml, 150 μg/ml activated charcoal, pH 6.0
Description: The microbiological assay consists in measuring the biological activity of an antibiotic, i.e. its capacity to inhibit the growth of an indicator bacterial strain. […] 20 μl samples containing the antibiotic to be measured were spotted onto paper discs applied directly onto the surface of the agar plates. After 18 h incubation at 37° C., the diameters of the zones around the paper discs where bacterial growth had been inhibited by the presence of the antibiotic were measured.

[2] = in vitro adsorption of various antibiotics onto activated charcoal; format: physicochemical; conditions: PBS pH 6, 37° C.
Description: (15 ml polypropylene tube, slow rotation 20 rpm), • sampling at 0.5 h, 1 h and 2 h, • Residual antibiotic dosage (i.e., not adsorbed) was determined by UV/visible spectrophotometric analysis.

[3] = In vitro adsorption kinetics of SN-38 onto activated charcoal; format: physicochemical; conditions: activated charcoal/SN-38 ratio of 10:1, 50 μg/mL in 0.01 M NaOH pH 12
Description: SN-38 was dissolved at a concentration of 50 μg/mL in 0.01 M NaOH pH 12. Non adsorbed SN-38 was detected after centrifugation and filtration by at its absorbance at 411 nm using a spectrophotometer.

[4] = molecular target: T1, topoisomerase I (Homo sapiens, UniProt P11387); conditions: in vitro; cited from earlier work
T1 sequence (P11387 1-765): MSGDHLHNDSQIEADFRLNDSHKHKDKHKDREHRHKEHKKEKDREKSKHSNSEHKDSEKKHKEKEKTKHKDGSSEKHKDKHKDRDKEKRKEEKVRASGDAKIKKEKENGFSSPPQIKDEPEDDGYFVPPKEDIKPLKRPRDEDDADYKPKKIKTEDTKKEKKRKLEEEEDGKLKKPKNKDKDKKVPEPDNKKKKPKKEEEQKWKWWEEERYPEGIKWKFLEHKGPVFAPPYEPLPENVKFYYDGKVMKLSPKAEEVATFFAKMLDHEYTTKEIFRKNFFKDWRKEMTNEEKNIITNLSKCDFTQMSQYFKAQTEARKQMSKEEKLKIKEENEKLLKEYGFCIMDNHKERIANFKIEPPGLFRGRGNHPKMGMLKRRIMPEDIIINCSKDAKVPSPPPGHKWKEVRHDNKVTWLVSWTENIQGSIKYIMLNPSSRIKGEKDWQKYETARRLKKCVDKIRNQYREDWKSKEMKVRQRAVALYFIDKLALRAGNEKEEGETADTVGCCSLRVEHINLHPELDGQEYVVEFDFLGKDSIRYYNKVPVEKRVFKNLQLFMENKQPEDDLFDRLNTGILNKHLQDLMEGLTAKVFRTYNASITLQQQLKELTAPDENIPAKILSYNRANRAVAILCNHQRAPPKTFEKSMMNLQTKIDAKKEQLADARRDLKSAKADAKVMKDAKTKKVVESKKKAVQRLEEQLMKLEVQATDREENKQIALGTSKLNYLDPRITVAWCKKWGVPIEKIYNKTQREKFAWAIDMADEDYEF

[5] = 10:1 ratio of activated charcoal/irinotecan, 200 μg/mL, simulated ileal medium pH 7.5
[6] = start 3/1, extra charcoal: 6/1 after 1 h and 9/1 after 2 h
[7] = start 10/1, extra charcoal: 20/1 after 1 h and 30/1 after 2 h

| SMILES | Residual antibiotic after 2 h (*) [2, 6] [%] | Residual antibiotic after 2 h (*) [2, 7] [%] | also measured |
| --- | --- | --- | --- |
| O=C(O)c1cn(C2CC2)c2cc(N3CCNCC3)c(F)cc2c1=O [Ciprofloxacine] | – | – | antibiotic adsorbed by the charcoal ([1]; time zero sample = approximately one minute of contact): ~70%; antibiotic adsorbed onto the charcoal ([1]; within one hour): Almost all of the antibiotic was adsorbed |
| O=C(O)[C@H]1/C(=C/CO)O[C@@H]2CC(=O)N21 [Clavulanate] | 22 | 3.5 | – |
| CCc1c2c(nc3ccc(O)cc13)-c1cc3c(c(=O)n1C2)COC(=O)[C@]3(O)CC [SN-38, 7-ethyl-10-hydroxycamptothecin] | – | – | time to complete adsorption [3]: ~30 min; antineoplastic activity relative to the prodrug form (Irinotecan) [4]: 1000 fold |
| C[C@]1(Cn2ccnn2)[C@H](C(=O)O)N2C(=O)C[C@H]2S1(=O)=O [Tazobactam] | <20 | – | – |
| CN(C)c1cc(NC(=O)CNC(C)(C)C)c(O)c2c1C[C@H]1C[C@H]3[C@H](N(C)C)C(O)=C(C(N)=O)C(=O)[C@@]3(O)C(O)=C1C2=O [Tigecycline] | 21 | – | – |
| CC[C@H]1OC(=O)C[C@@H](O)[C@H](C)[C@@H](O[C@@H]2O[C@H](C)[C@@H](O[C@H]3C[C@@](C)(O)[C@@H](O)[C@H](C)O3)[C@H](N(C)C)[C@H]2O)[C@@H](CC=O)C[C@@H](C)C(=O)/C=C/C(C)=C/[C@@H]1CO[C@@H]1O[C@H](C)[C@@H](O)[C@@H](OC)[C@H]1OC [Tylosine] | <3 | <3 | – |
| CN[C@H](CC(C)C)C(=O)N[C@H]1C(=O)N[C@@H](CC(N)=O)C(=O)N[C@H]2C(=O)N[C@H]3C(=O)N[C@H](C(=O)N[C@H](C(=O)O)c4cc(O)cc(O)c4-c4cc3ccc4O)[C@H](O)c3ccc(c(Cl)c3)Oc3cc2cc(c3O[C@@H]2O[C@H](CO)[C@@H](O)[C@H](O)[C@H]2O[C@H]2C[C@](C)(N)[C@H](O)[C@H](C)O2)Oc2ccc(cc2Cl)[C@H]1O [Vancomycin] | 27 | <1.25 | – |
| CCc1c2c(nc3ccc(OC(=O)N4CCC(N5CCCCC5)CC4)cc13)-c1cc3c(c(=O)n1C2)COC(=O)[C@]3(O)CC [irinotecan, Irinotecan] | – | – | time to complete adsorption [5]: about 15 minutes |
